Laboratory results as given in the supplement of paper PMC10307832.

Compound: C/C(=N\NC(=S)N1CCC1)/C2=CC=CC=N2 + CC(=O)Nc1cccc(-n2c(=O)n(C3CC3)c(=O)c3c(Nc4ccc(I)cc4F)n(C)c(=O)c(C)c32)c1 [Trametinib] (partner 0.02 µM)
Assay: relative viability (nuclei count vs DMSO), 5 days (fraction); higher = more cells survive
In short: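 Medians of duplicate plates are given as relative viability. That measure is the nuclei count in treated wells divided by the count in vehicle wells. Counts were taken on 4× images of lung cancer cell lines in 1536-well plates, 5 days after pin-tool dosing the day after seeding with one drug alone or a fixed anchor-drug dose plus five library-drug doses (not always all listed) in √10 steps.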

Row | Cell Line | relative viability (first compound 0.05 µM) | relative viability (first compound 0.1581 µM) | relative viability (first compound 0.5 µM) | relative viability (first compound 1.581 µM) | relative viability (first compound 5 µM)
1 | 201T | 0.575 | 0.713 | 0.327 | 0.407 | 0.283
2 | A-427 | 0.226 | 0.215 | 0.189 | 0.185 | 0.178
3 | BEN | 0.341 | 0.344 | 0.359 | 0.3 | 0.268
4 | CAL-12T | 0.0974 | 0.126 | 0.163 | 0.135 | 0.122
5 | COR-L23 | 0.111 | 0.133 | 0.124 | 0.107 | 0.114
6 | COR-L 105 | 0.376 | 0.462 | 0.377 | 0.343 | 0.339
7 | ChaGo-K-1 | 0.147 | 0.391 | 0.15 | 0.133 | 0.152
8 | EKVX | 0.104 | 0.124 | 0.114 | 0.151 | 0.136
9 | EMC-BAC-2 | 0.293 | 0.282 | 0.246 | 0.2 | 0.231
10 | EPLC-272H | 0.121 | 0.114 | 0.114 | 0.0558 | 0.0892
11 | H3255 | 0.29 | 0.304 | 0.258 | 0.295 | 0.325
12 | HARA | 0.322 | 0.11 | 0.193 | 0.109 | 0.102
13 | HCC-15 | 0.151 | 0.23 | 0.117 | 0.0989 | 0.0939
14 | HCC-44 | 0.869 | 0.987 | 0.409 | 0.491 | 0.397
15 | HCC-78 | 0.5 | 0.377 | 0.359 | 0.275 | 0.23
16 | HCC-366 | 0.0818 | 0.0309 | 0.0211 | 0.0256 | 0.025
17 | HCC-827 | 0.377 | 0.269 | 0.211 | 0.214 | 0.176
18 | HOP-62 | 0.216 | 0.212 | 0.112 | 0.131 | 0.112
19 | LC-2-ad | 0.238 | 0.222 | 0.223 | 0.232 | 0.231
20 | LCLC-97TM1 | 0.0885 | 0.152 | 0.0765 | 0.0664 | 0.0773
21 | LCLC-103H | 0.303 | 0.622 | 0.324 | 0.357 | 0.256
22 | LK-2 | 0.174 | 0.187 | 0.184 | 0.146 | 0.159
23 | LOU-NH91 | 0.632 | 0.6 | 0.583 | 0.512 | 0.452
24 | LU99A | 0.186 | 0.405 | 0.183 | 0.152 | 0.146

Row | Cell Line | relative viability (first compound 0.05 µM) | relative viability (first compound 0.1581 µM) | relative viability (first compound 0.5 µM) | relative viability (first compound 1.581 µM) | relative viability (first compound 5 µM)
25 | LXF-289 | 0.284 | 0.553 | 0.206 | 0.221 | 0.176
26 | NCI-H23 | 0.119 | 0.137 | 0.121 | 0.0972 | 0.128
27 | NCI-H322M | 0.451 | 0.45 | 0.424 | 0.43 | 0.423
28 | NCI-H358 | 0.1 | 0.0969 | 0.116 | 0.0973 | 0.097
29 | NCI-H441 | 0.143 | 0.173 | 0.154 | 0.11 | 0.131
30 | NCI-H460 | 0.0177 | 0.0199 | 0.0221 | 0.0121 | 0.0173
31 | NCI-H520 | 0.101 | 0.129 | 0.118 | 0.123 | 0.159
32 | NCI-H596 | 0.613 | 0.296 | 0.293 | 0.201 | 0.239
33 | NCI-H647 | 0.0951 | 0.0887 | 0.127 | 0.114 | 0.13
34 | NCI-H650 | 0.17 | 0.207 | 0.204 | 0.169 | 0.151
35 | NCI-H661 | 0.208 | 0.263 | 0.26 | 0.224 | 0.213
36 | NCI-H727 | 0.361 | 0.33 | 0.358 | 0.367 | 0.318
37 | NCI-H838 | 0.156 | 0.167 | 0.157 | 0.11 | 0.136
38 | NCI-H1355 | 0.22 | 0.191 | 0.136 | 0.176 | 0.17
39 | NCI-H1395 | 0.425 | 0.388 | 0.327 | 0.381 | 0.389
40 | NCI-H1437 | 0.23 | 0.241 | 0.194 | 0.16 | 0.208
41 | NCI-H1648 | 0.408 | 0.403 | 0.289 | 0.302 | 0.31
42 | NCI-H1650 | 0.131 | 0.176 | 0.143 | 0.177 | 0.146
43 | NCI-H1651 | 0.209 | 0.156 | 0.137 | 0.102 | 0.0667
44 | NCI-H1666 | 0.545 | 0.558 | 0.495 | 0.467 | 0.5
45 | NCI-H1734 | 0.153 | 0.154 | 0.122 | 0.137 | 0.116
46 | NCI-H1755 | 0.551 | 0.734 | 0.254 | 0.284 | 0.298
47 | NCI-H1792 | 0.415 | 0.101 | 0.0783 | 0.0869 | 0.0954
48 | NCI-H1793 | 0.308 | 0.188 | 0.166 | 0.142 | 0.179

Row | Cell Line | relative viability (first compound 0.05 µM) | relative viability (first compound 0.1581 µM) | relative viability (first compound 0.5 µM) | relative viability (first compound 1.581 µM) | relative viability (first compound 5 µM)
49 | NCI-H1915 | 0.0702 | 0.0677 | 0.0851 | 0.0919 | 0.112
50 | NCI-H1944 | 0.32 | 0.392 | 0.144 | 0.147 | 0.152
51 | NCI-H1975 | 0.143 | 0.118 | 0.105 | 0.109 | 0.119
52 | NCI-H1993 | 0.402 | 0.374 | 0.438 | 0.351 | 0.45
53 | NCI-H2009 | 0.108 | 0.133 | 0.102 | 0.0932 | 0.111
54 | NCI-H2023 | 0.0918 | 0.0896 | 0.0543 | 0.069 | 0.0829
55 | NCI-H2085 | 0.183 | 0.19 | 0.216 | 0.153 | 0.224
56 | NCI-H2087 | 0.104 | 0.123 | 0.11 | 0.108 | 0.0815
57 | NCI-H2126 | 0.299 | 0.574 | 0.189 | 0.183 | 0.23
58 | NCI-H2170 | 0.684 | 0.869 | 0.186 | 0.174 | 0.109
59 | NCI-H2228 | 0.124 | 0.151 | 0.137 | 0.0911 | 0.135
60 | NCI-H2342 | 0.249 | 0.303 | 0.227 | 0.253 | 0.272
61 | NCI-H2347 | 0.247 | 0.271 | 0.244 | 0.294 | 0.227
62 | NCI-H2405 | 0.236 | 0.278 | 0.24 | 0.239 | 0.3
63 | NCI-H3122 | 0.0866 | 0.159 | 0.0947 | 0.116 | 0.125
64 | PC-3 [JPC-3] | 0.402 | 0.409 | 0.318 | 0.357 | 0.342
65 | PC-14 | 0.0651 | 0.0788 | 0.0488 | 0.039 | 0.0546
66 | RERF-LC-KJ | 0.242 | 0.241 | 0.204 | 0.222 | 0.214
67 | SK-LU-1 | 0.294 | 0.278 | 0.254 | 0.191 | 0.258
68 | SK-MES-1 | 0.277 | 0.236 | 0.245 | 0.213 | 0.246
69 | SW 1573 | 0.0975 | 0.0992 | 0.119 | 0.0672 | 0.0635
70 | UMC-11 | 0.164 | 0.164 | 0.159 | 0.113 | 0.129
